Experimental data: patent US8785488B2 (Exelixis Patent Company LLC, priority 2009, dated 2014)

Legend:
[1] = molecular target: T1, h-TGR5 (Homo sapiens, UniProt Q8TDU6); test: TGR5 cAMP Assay using Cisbio cAMP Dynamic2 htrf kit (hTGR5CRE-luc HEK 293 cells); type: cell-based; details: h-TGR5 cAMP EC50, Table 1; read-out: cAMP (EC50)
T1 construct: expressed in transfected cells
T1 sequence (Q8TDU6 1-330): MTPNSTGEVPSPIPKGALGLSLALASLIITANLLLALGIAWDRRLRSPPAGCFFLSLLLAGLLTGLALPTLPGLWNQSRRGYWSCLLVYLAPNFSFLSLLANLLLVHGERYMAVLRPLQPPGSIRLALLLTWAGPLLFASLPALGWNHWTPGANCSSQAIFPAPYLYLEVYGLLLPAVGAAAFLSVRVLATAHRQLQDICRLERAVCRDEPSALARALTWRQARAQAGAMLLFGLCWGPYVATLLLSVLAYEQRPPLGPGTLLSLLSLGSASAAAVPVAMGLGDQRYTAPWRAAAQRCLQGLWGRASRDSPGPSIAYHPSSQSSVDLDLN
Outline: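 […], 4000 hTGR5CRE-luc HEK 293 cells per well, with 0.5 mM IBMX and d2-cAMP, were incubated 30 min at room temperature with compounds in 8-point half-log series, in quadruplicate.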

[2] = molecular target: T2, human TGR5 (h-TGR5) (Homo sapiens, UniProt Q8TDU6); test: TGR5/CRE-Luciferiase Assay (HEK 293 hTGR5/CRE-Luc cells); type: cell-based; details: h-TGR5 CRE-Luc EC50, Table 1; read-out: CRE-Luc (EC50)
T2 construct: expressed in transfected cells
T2 sequence (Q8TDU6 1-330): T1 sequence (Q8TDU6 1-330)
Outline: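 HEK293 cells stably carrying hTGR5 and a CRE-luciferase reporter were exposed to serially diluted compounds (diluted in DMEM with 5% DMSO) for 6 h. Cells were then lysed in luciferase buffer, luminescence was read, and EC50 values were derived from dose-response curves.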

Molecule	EC50 [1] [nM]	EC50 [2] [nM]
COC(=O)c1cc(CSc2ncc(C(C)(C)c3ccc(Cl)c(Cl)c3)n2-c2ccc(F)c(OC)c2)ccc1C#CCNC(=N)N [methyl 2-(3-{[amino(imino)methyl]amino}prop-1-yn-1-yl)-5-[({5-[1-(3,4-dichlorophenyl)-1-methylethyl]-1-[4-fluoro-3-(methyloxy)phenyl]-1H-imidazol-2-yl}thio)methyl]benzoate]	100 to 1000	100 to 1000
N-2-({[3-chloro-4-({[5-{1-[4-chloro-3- (methyloxy)phenyl]-1-methylethyl}-1-(4- fluorophenyl)-1H-imidazol-2-yl]thio}methyl)- 5-fluorophenyl]amino}carbonyl)-L-arginine	< 100	< 100
